{
  "source": "paper PMC11251039",
  "about": "“Harnessing cholesterol uptake of malaria parasites for therapeutic applications” (EMBO Molecular Medicine, 2024)",
  "key": {"[1]": {"test_system": "asexual P. falciparum 3D7 wild-type parasites", "test": "P. falciparum asexual growth inhibition assay (SYBR Safe DNA replication)", "format": "cell-based, Plasmodium falciparum", "design": "Figure 5B dose-response source data (growth, replicate values): unit not given here", "conditions": "for Figure 5B dose-response source data (growth, replicate values): individual replicates; for IC50: 72 h, read-out: IC50, P. falciparum asexual growth inhibition", "protocol": "P. falciparum asexual parasite assays commenced with ring-stage parasites at 1% parasitaemia and 1% haematocrit. 200 nM chloroquine (Sigma C6628) or artesunate (Sigma A3731) was used as a no-growth control. DNA replication (indicating growth) was measured at the specified time using SYBR Safe DNA Gel Stain (Invitrogen 33102) and a fluorescence microplate reader (Smilkstein et al, [2004]; Spry et al, [2013]). […]\nGrowth and Viability Inhibition Assays:\nPlasmodium falciparum Growth Inhibition Assays:\nP. falciparum parasites were maintained under routine culture conditions in red blood cells and RPMI 1640-Hepes with Glutamax, supplemented with 10 mM D-glucose, 480 μM hypoxanthine, 20 μg/mL gentamicin, 0.375% (w/v) AlbuMAXTM II (Thermo Fisher 11021029), and 2.5% v/v heat-inactivated human serum (17). Cultures were maintained at 37 °C […]\nwildtype parasites except for the ring stage survival assay, as specified. Cultures were synchronised with 5% w/v D-sorbitol (18).\nGrowth inhibition was investigated according to methods described by Smilkstein et al. (19) with modifications by Spry et al. (20). Compounds or solvent controls (DMSO, ethanol, or ethyl acetate) were serially diluted 2-fold across flat-bottom 96-well plates. Culture media without compound was used as a negative control. 200 nM chloroquine (Sigma C6628) or artesunate (Sigma A3731) was used as a positive control to determine background fluorescence. The parasitaemia of a culture containing predominantly ring stage parasites was counted by Giemsa smear. The parasitaemia was adjusted to 1% by addition of fresh uRBCs and added to the plate at a final haematocrit of 1%, with 200 µL per well. The plates were incubated at 37 °C under humid microaerophilic conditions. After 24, 48, or 72 hours, the plates were transferred to a -18 °C freezer to stop the assay and lyse cells. Plates were thawed and lysate was mixed 1:1 with SYBR Safe DNA Gel Stain (Invitrogen 33102) (final concentration 1/10,000) diluted in lysis buffer (20 mM TRIS, 5 mM EDTA, 0.008% w/v Saponin, 0.08% w/v Triton-X 100, pH 7.5). Fluorescence was detected at 490 nm excitation/ 520 nm emission on a FLUOstar Optima fluorescence plate reader (BMG Labtech)."}, "[2]": {"test_system": "human embryonic kidney cells (HEK293)", "test": "Human embryonic kidney cell viability assay (MTT)", "format": "cell-based", "conditions": "for Dose-response data points (Figure 5C): replicate data points", "protocol": "HEK293 cell viability assays commenced with 5000 cells per well. 10 µg/mL cycloheximide was used as a no-growth control. Metabolic capacity (indicating viability) was measured in an absorbance microplate reader after incubation with 0.45 mg/mL methylthiazolyldiphenyl-tetrazolium bromide (MTT; Sigma M2128) for 2 h followed by crystal solubilisation in SDS. […]\nHuman Embryonic Kidney Cell Viability Assays:\nHuman Embryonic Kidney Cell (HEK293) culture:\nThe HEK293 cell line was maintained under routine culture conditions in DMEM containing 3.7 g/L NaHCO3 supplemented with 10% FBS, 200 μM glutamine, 100 units/mL penicillin, and 100 μg/mL streptomycin at 37 °C in a humidified 5% CO2 incubator.\nCells were detached from a flask using 0.25% Trypsin with 0.2 g/L EDTA (Sigma T4049) and washed with culture media containing no phenol red. Cells were incubated with a serial dilution of each compound, or media/DMSO alone. The protein synthesis inhibitor cycloheximide (Sigma 01810) at 10 µg/mL was used as a positive control to determine background absorbance. 5,000 cells were seeded in each well. After 96 hours, 0.45 mg/mL methylthiazolyldiphenyl-tetrazolium bromide (MTT; Sigma M2128) was added and incubated for a further two hours, before mixing 1.1:1 with 10% w/v sodium dodecyl sulfate (SDS) to solubilise crystals and freezing the plate at -18 °C to stop the assay. […]"}},
  "note": "Values joined by “and” are separate entries in the source; they are usually repeats but may differ in a detail not shown here. Equal values may be shown once. Read-outs that look alike come from different tables or passages of the source.",
  "data": [
    {"smiles": "CC(C)(C)OOCCO[C@H]1CC[C@H]2[C@@H]3CC=C4C[C@@H](O)CC[C@]4(C)[C@H]3CC[C@]12C", "note": "[BC86D]", "values": [
      {"measurement": "Figure 5B dose-response source data (growth, replicate values)", "setting": "[1]; Concentration 0.019532 uM", "result": "105.3 and 96.53 and 86.36 and 94.74 and 88.38 and 91.4"},
      {"measurement": "Figure 5B dose-response source data (growth, replicate values)", "setting": "[1]; Concentration 0.039063 uM", "result": "101.2 and 93.9 and 88.17 and 67.71 and 70.53 and 73.82 and 95.83 and 90.15 and 93.44"},
      {"measurement": "Figure 5B dose-response source data (growth, replicate values)", "setting": "[1]; Concentration 0.078125 uM", "result": "97.22 and 94.27 and 90.34 and 67.69 and 67.82 and 69.83 and 95.38 and 88.24 and 94.29"},
      {"measurement": "Figure 5B dose-response source data (growth, replicate values)", "setting": "[1]; Concentration 0.15625 uM", "result": "96.36 and 93.34 and 87.86 and 61.44 and 62.01 and 63.2 and 95.83 and 94.74 and 95.36"},
      {"measurement": "Figure 5B dose-response source data (growth, replicate values)", "setting": "[1]; Concentration 0.3125 uM", "result": "73 and 78.58 and 67.15 and 39.54 and 44.2 and 46.55 and 91.73 and 92.12 and 93.7"},
      {"measurement": "Figure 5B dose-response source data (growth, replicate values)", "setting": "[1]; Concentration 0.625 uM", "result": "35.28 and 38.38 and 34.74 and 19.93 and 23.01 and 29.36 and 61.25 and 65.6 and 67.6"},
      {"measurement": "Figure 5B dose-response source data (growth, replicate values)", "setting": "[1]; Concentration 1.25 uM", "result": "21.76 and 22.71 and 19.11 and 8.627 and 13.04 and 18.09 and 18.17 and 19.23 and 20.29"},
      {"measurement": "Figure 5B dose-response source data (growth, replicate values)", "setting": "[1]; Concentration 2.5 uM", "result": "14.75 and 15.93 and 13.24 and 1.608 and 6.601 and 8.38 and 7.495 and 10.61 and 8.324"},
      {"measurement": "Figure 5B dose-response source data (growth, replicate values)", "setting": "[1]; Concentration 5 uM", "result": "10.45 and 16.02 and 6.128 and -6.852 and -3.181 and -0.1793 and 5.173 and 6.43 and 3.972"},
      {"measurement": "Figure 5B dose-response source data (growth, replicate values)", "setting": "[1]; Concentration 10 uM", "result": "4.733 and -2.356 and 1.324 and -0.2487 and 0.35 and -1.359 and 1.305 and 0.4257 and 0.3494"},
      {"measurement": "Figure 5B dose-response source data (growth, replicate values)", "setting": "[1]; Concentration 12.5 uM", "result": "2.181 and -0.01995 and -1.157"},
      {"measurement": "Figure 5B dose-response source data (growth, replicate values)", "setting": "[1]; Concentration 25 uM", "result": "4.45 and 0.3217 and -1.979"},
      {"measurement": "Dose-response data points (Figure 5C)", "setting": "[2]; 3.125000 μM", "result": "115.5 and 95.86 and 88.3 and 98.59 and 112 and 99.93 and 104.6 and 105.3 and 96.8 and 121.6 and 126.6 and 132.2"},
      {"measurement": "Dose-response data points (Figure 5C)", "setting": "[2]; 6.250000 μM", "result": "96.33 and 95.87 and 97.03 and 100.5 and 103.4 and 96.23 and 94.82 and 98.4 and 99.62 and 111.9 and 133.1 and 110.9"},
      {"measurement": "Dose-response data points (Figure 5C)", "setting": "[2]; 12.500000 μM", "result": "82.46 and 90.77 and 77.92 and 80.03 and 95.9 and 97.58 and 94.64 and 94.52 and 89.57 and 87.62 and 85.62 and 86.13"},
      {"measurement": "Dose-response data points (Figure 5C)", "setting": "[2]; 25.000000 μM", "result": "69.58 and 78.66 and 69.32 and 83.79 and 87.18 and 91.53 and 75.15 and 72.67 and 65.58 and 76.71 and 79.77 and 75.18"},
      {"measurement": "Dose-response data points (Figure 5C)", "setting": "[2]; 50.000000 μM", "result": "3.07 and 5.347 and 9.422 and 2.15 and 5.359 and 78.86 and -3.535 and -3.352 and -3.7 and -3.023 and -3.058 and -2.513"},
      {"measurement": "Dose-response data points (Figure 5C)", "setting": "[2]; 100.000000 μM", "result": "-1.036 and -1.804 and -2.143 and -2.292 and -2.356 and -1.995 and -3.811 and -3.706 and -3.888 and -2.988 and -3.04 and -3.163"}
    ]},
    {"smiles": "CC(C)(C)OOCCO[C@H]1CC[C@H]2[C@@H]3CC=C4C[C@@H](O)CC[C@]4(C)[C@H]3CC[C@]12C", "note": "[C-17-perox]", "values": [
      {"measurement": "IC50", "setting": "[1]", "result": 0.5, "unit": "µM"},
      {"measurement": "IC50", "setting": "[1]; Plasmodium falciparum, 3D7, 72 h", "result": 0.48, "unit": "µM"},
      {"measurement": "Fold difference in IC50 HEK293 compared to P. falciparum", "setting": "[2]; 96 h HEK293 vs 72 h P. falciparum", "result": "~ 60 fold"},
      {"measurement": "IC50", "setting": "[2]; Homo sapiens, 96 h, HEK293, read-out: IC50, human embryonic kidney cell inhibition (viability)", "result": 31.3, "unit": "µM"}
    ]}
  ]
}
